*1 amine or outer side, *2 acyl side, *3 side chain or, on linkers, in order; H or OH if unused. Where a SMILES comes first, the peptide text is derived from it. Side-chain parts run from the residue outwards. [ ]: non-standard residue; d: D form. The star is where a group is joined. γGlu = O=C(O)[C@H](CCC(=O)[*:2])N[*:1]; C14 diacid = O=C(O)CCCCCCCCCCCCC(=O)*; NMeI = CC[C@H](C)[C@H](NC)C(=O)O; Api = NC1(C(=O)O)CCNCC1; AEEA = NCCOCCOCC(=O)O; Aib = CC(C)(N)C(=O)O

Results on five compounds are retold here after patent publication US20260001928A1 (CORTERIA PHARMACEUTICALS, priority 2022, published 2026).

In one test the target is T1, human CRF2a receptor (Homo sapiens, UniProt Q13324).
T1 construct: expressed in transfected cells; host or cells: TeloHEAC cells
T1 sequence (Q13324 1-411): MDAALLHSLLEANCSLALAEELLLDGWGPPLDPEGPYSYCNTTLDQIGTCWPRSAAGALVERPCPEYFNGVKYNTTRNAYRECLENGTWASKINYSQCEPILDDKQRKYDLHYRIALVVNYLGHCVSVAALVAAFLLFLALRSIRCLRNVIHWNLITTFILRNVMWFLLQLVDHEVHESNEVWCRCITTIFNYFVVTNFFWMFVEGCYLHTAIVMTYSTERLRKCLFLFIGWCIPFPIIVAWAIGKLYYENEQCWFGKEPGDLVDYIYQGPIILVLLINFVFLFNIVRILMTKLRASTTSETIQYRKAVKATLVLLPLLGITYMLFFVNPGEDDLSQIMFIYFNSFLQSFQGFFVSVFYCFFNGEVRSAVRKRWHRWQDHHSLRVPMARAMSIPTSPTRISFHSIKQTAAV
Put plainly: Activity at human CRF2a receptor, cAMP functional assay in TeloHEAC cells. The test is classed as cell-based. To be noted: TeloHEAC cells stably expressing human CRF2a receptor, relative to urocortin 2 (100 nM = 100%). In outline:
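cAMP accumulation was measured by HTRF 665/620 nm ratio after 30 min at 37° C compound exposure (16 twofold dilutions) of CRF2a-expressing TeloHEAC cells, 10000/well, in HEPES-buffered HBSS plus IBMX. Activity was normalised to urocortin 2 at 100 nM (100%), and EC50 was the concentration giving half-maximal activation.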

In a further test the target is T2, CFR1R receptor (Homo sapiens, UniProt P34998).
T2 construct: host or cells: CHO-K1 (clone 2)
T2 sequence (P34998 24-415): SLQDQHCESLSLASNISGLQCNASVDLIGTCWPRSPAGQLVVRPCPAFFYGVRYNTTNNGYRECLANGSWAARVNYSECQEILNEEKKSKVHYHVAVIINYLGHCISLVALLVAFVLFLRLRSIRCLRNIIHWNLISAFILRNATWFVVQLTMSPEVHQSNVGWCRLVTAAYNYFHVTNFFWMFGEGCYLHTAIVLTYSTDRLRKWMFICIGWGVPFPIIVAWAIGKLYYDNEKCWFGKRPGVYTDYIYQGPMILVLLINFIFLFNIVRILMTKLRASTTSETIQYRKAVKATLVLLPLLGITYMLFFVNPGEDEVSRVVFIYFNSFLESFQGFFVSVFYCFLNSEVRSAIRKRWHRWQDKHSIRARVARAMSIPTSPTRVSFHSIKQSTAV
Put plainly: Activity at anti-target CFR1R receptor, cAMP assay in CRF1R-overexpression CHO-K1 cells. It is filed as cell-based. To be noted: 100% = Sauvagine at 100 nM; for EC50: cAMP. In outline:
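Signal is normalised to 100 nM Sauvagine, taken as 100% activation, in clone 2 cells plated at a final 4000 cells/well from frozen stocks.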
For orientation: Changes in cAMP serve as a functional read-out for many G protein-coupled receptors.

Consider `CC[C@H](C)[C@H](NC(C)=O)C(=O)N[C@H](C(=O)N[C@@H](CC(C)C)C(=O)N[C@@H](CO)C(=O)N[C@@H](CC(C)C)C(=O)N[C@@H](CC(=O)O)C(=O)N[C@@H](C(=O)N1CCC[C@H]1C(=O)N[C@H](C(=O)N[C@@H](CCCCN)C(=O)N[C@@H](CC(C)C)C(=O)N[C@@H](CCCCNC(=O)COCCOCCNC(=O)COCCOCCNC(=O)CC[C@H](NC(=O)CC[C@H](NC(=O)CCCCCCCCCCCCC(=O)O)C(=O)O)C(=O)O)C(=O)N[C@@H](CCCCN)C(=O)N[C@H](C(=O)N[C@@H](CC(C)C)C(=O)N[C@@H](CC(C)C)C(=O)N[C@@H](CCC(=O)O)C(=O)N[C@@H](CCC(N)=O)C(=O)N[C@@H](CCC(=O)O)C(=O)N[C@@H](CCCCN)C(=O)N[C@@H](CCC(N)=O)C(=O)N[C@@H](CCCCN)C(=O)N[C@@H](CCCCN)C(=O)N[C@@H](CCC(N)=O)C(=O)N[C@@H](CCCNC(=N)N)C(=O)N[C@@H](CCC(=O)O)C(=O)N[C@@H](CCC(N)=O)C(=O)N[C@@H](C)C(=O)N[C@@H](CCC(=O)O)C(=O)N[C@H](C(=O)N[C@@H](CC(N)=O)C(=O)NC1(C(=O)N[C@@H](CCC(N)=O)C(=O)N[C@H](C(=O)N[C@@H](CC(C)C)C(=O)N[C@@H](C)C(=O)N[C@@H](CCC(N)=O)C(=O)N[C@H](C(N)=O)C(C)C)[C@@H](C)CC)CCNCC1)[C@@H](C)O)[C@@H](C)CC)[C@@H](C)CC)C(C)C)C(C)C` [compound 175] (Ac-IVLSLD[dV]PIKLK([AEEA-AEEA-γGlu-γGlu-C14 diacid])KILLEQEKQKKQREQAETN[Api]QILAQV-NH2), for which, at human CRF2a receptor, it took 18.9 nM to reach a half-maximal effect (EC50). For the same compound, at CFR1R receptor, the “Emax (% I)” value came to 5 % I and the EC50 (commonly the midpoint of the concentration-response curve) was above 250 nM.
For the compound `CC[C@H](C)[C@H](NC)C(=O)N[C@H](C(=O)N[C@@H](CC(C)C)C(=O)N[C@@H](CO)C(=O)N[C@@H](CC(C)C)C(=O)N[C@@H](CC(=O)O)C(=O)N[C@@H](C(=O)N1CCC[C@H]1C(=O)N[C@H](C(=O)N[C@@H](CCCCN)C(=O)N[C@@H](CC(C)C)C(=O)N[C@@H](CCCCNC(=O)CC[C@H](NC(=O)CCCCCCCCCCCCC(=O)O)C(=O)O)C(=O)N[C@@H](CCCCN)C(=O)N[C@H](C(=O)N[C@@H](CC(C)C)C(=O)N[C@@H](CC(C)C)C(=O)N[C@@H](CCC(=O)O)C(=O)N[C@@H](CCC(N)=O)C(=O)N[C@@H](CCC(=O)O)C(=O)N[C@@H](CCCCN)C(=O)N[C@@H](CCC(N)=O)C(=O)N[C@@H](CCCCN)C(=O)N[C@@H](C)C(=O)N[C@@H](CCC(N)=O)C(=O)N[C@@H](CCCNC(=N)N)C(=O)N[C@@H](CCC(=O)O)C(=O)N[C@@H](CCC(N)=O)C(=O)N[C@@H](C)C(=O)N[C@@H](CCC(=O)O)C(=O)N[C@H](C(=O)N[C@@H](CC(N)=O)C(=O)NC(C)(C)C(=O)N[C@@H](CCC(N)=O)C(=O)N[C@H](C(=O)N[C@@H](CC(C)C)C(=O)N[C@@H](C)C(=O)N[C@@H](CCC(N)=O)C(=O)N[C@H](C(N)=O)C(C)C)[C@@H](C)CC)[C@@H](C)O)[C@@H](C)CC)[C@@H](C)CC)C(C)C)C(C)C` [compound 176] (H-[NMeI]VLSLD[dV]PIKLK([γGlu-C14 diacid])KILLEQEKQKAQREQAETN[Aib]QILAQV-NH2), the response at human CRF2a receptor was half-maximal at 0.99 nM (EC50). Further, at CFR1R receptor, the “Emax (% I)” value is listed as 8 % I and the EC50 was above 250 nM.
For the compound `CC[C@H](C)[C@H](NC)C(=O)N[C@H](C(=O)N[C@@H](CC(C)C)C(=O)N[C@@H](CO)C(=O)N[C@@H](CC(C)C)C(=O)N[C@@H](CC(=O)O)C(=O)N[C@@H](C(=O)N1CCC[C@H]1C(=O)N[C@H](C(=O)N[C@@H](CCCCN)C(=O)N[C@@H](CC(C)C)C(=O)N[C@@H](CCCCNC(=O)CC[C@H](NC(=O)CCCCCCCCCCCCC(=O)O)C(=O)O)C(=O)N[C@@H](CCCCN)C(=O)N[C@H](C(=O)N[C@@H](CC(C)C)C(=O)N[C@@H](CC(C)C)C(=O)N[C@@H](CCC(=O)O)C(=O)N[C@@H](CCC(N)=O)C(=O)N[C@@H](CCC(=O)O)C(=O)N[C@@H](CCCCN)C(=O)N[C@@H](CCC(N)=O)C(=O)N[C@@H](CCCCN)C(=O)NC(C)(C)C(=O)N[C@@H](CCC(N)=O)C(=O)N[C@@H](CCCNC(=N)N)C(=O)N[C@@H](CCC(=O)O)C(=O)N[C@@H](CCC(N)=O)C(=O)N[C@@H](C)C(=O)N[C@@H](CCC(=O)O)C(=O)N[C@H](C(=O)N[C@@H](CC(N)=O)C(=O)NC(C)(C)C(=O)N[C@@H](CCC(N)=O)C(=O)N[C@H](C(=O)N[C@@H](CC(C)C)C(=O)N[C@@H](C)C(=O)N[C@@H](CCC(N)=O)C(=O)N[C@H](C(N)=O)C(C)C)[C@@H](C)CC)[C@@H](C)O)[C@@H](C)CC)[C@@H](C)CC)C(C)C)C(C)C` [compound 177] (H-[NMeI]VLSLD[dV]PIKLK([γGlu-C14 diacid])KILLEQEKQK[Aib]QREQAETN[Aib]QILAQV-NH2), the figures for the EC50 at human CRF2a receptor and on CFR1R receptor were 0.86 nM and above 250 nM, respectively. On CFR1R receptor, the “Emax (% I)” value was determined as 10 % I.
Taken in the same sequence, the figures for `CC[C@H](C)[C@H](NC)C(=O)N[C@H](C(=O)N[C@@H](CC(C)C)C(=O)N[C@@H](CO)C(=O)N[C@@H](CC(C)C)C(=O)N[C@@H](CC(=O)O)C(=O)N[C@@H](C(=O)N1CCC[C@H]1C(=O)N[C@H](C(=O)N[C@@H](CCCCN)C(=O)N[C@@H](CC(C)C)C(=O)N[C@@H](CCCCNC(=O)COCCOCCNC(=O)COCCOCCNC(=O)CC[C@H](NC(=O)CCCCCCCCCCCCC(=O)O)C(=O)O)C(=O)N[C@@H](CCCCN)C(=O)N[C@H](C(=O)N[C@@H](CC(C)C)C(=O)N[C@@H](CC(C)C)C(=O)N[C@@H](CCC(=O)O)C(=O)N[C@@H](CCC(N)=O)C(=O)N[C@@H](CCC(=O)O)C(=O)N[C@@H](CCCCN)C(=O)N[C@@H](CCC(N)=O)C(=O)N[C@@H](CCCCN)C(=O)N[C@@H](CCCCN)C(=O)N[C@@H](CCC(N)=O)C(=O)N[C@@H](CCCNC(=N)N)C(=O)N[C@@H](CCC(=O)O)C(=O)N[C@@H](CCC(N)=O)C(=O)N[C@@H](C)C(=O)N[C@@H](CCC(=O)O)C(=O)N[C@H](C(=O)N[C@@H](CC(N)=O)C(=O)NC(C)(C)C(=O)N[C@@H](CCC(N)=O)C(=O)N[C@H](C(=O)N[C@@H](CC(C)C)C(=O)N[C@@H](C)C(=O)N[C@@H](CCC(N)=O)C(=O)N[C@H](C(N)=O)C(C)C)[C@@H](C)CC)[C@@H](C)O)[C@@H](C)CC)[C@@H](C)CC)C(C)C)C(C)C` [compound 178] (H-[NMeI]VLSLD[dV]PIKLK([AEEA-AEEA-γGlu-C14 diacid])KILLEQEKQKKQREQAETN[Aib]QILAQV-NH2) were 6.5 nM, above 250 nM and 1 % I.
Taken in the same sequence, the figures for `CC[C@H](C)[C@H](NC)C(=O)N[C@H](C(=O)N[C@@H](CC(C)C)C(=O)N[C@@H](CO)C(=O)N[C@@H](CC(C)C)C(=O)N[C@@H](CC(=O)O)C(=O)N[C@@H](C(=O)N1CCC[C@H]1C(=O)N[C@H](C(=O)N[C@@H](CCCCN)C(=O)N[C@@H](CC(C)C)C(=O)N[C@@H](CCCCNC(=O)COCCOCCNC(=O)COCCOCCNC(=O)CC[C@H](NC(=O)CC[C@H](NC(=O)CCCCCCCCCCCCC(=O)O)C(=O)O)C(=O)O)C(=O)N[C@@H](CCCCN)C(=O)N[C@H](C(=O)N[C@@H](CC(C)C)C(=O)N[C@@H](CC(C)C)C(=O)N[C@@H](CCC(=O)O)C(=O)N[C@@H](CCC(N)=O)C(=O)N[C@@H](CCC(=O)O)C(=O)N[C@@H](CCCCN)C(=O)N[C@@H](CCC(N)=O)C(=O)N[C@@H](CCCCN)C(=O)N[C@@H](CCCCN)C(=O)N[C@@H](CCC(N)=O)C(=O)N[C@@H](CCCNC(=N)N)C(=O)N[C@@H](CCC(=O)O)C(=O)N[C@@H](CCC(N)=O)C(=O)N[C@@H](C)C(=O)N[C@@H](CCC(=O)O)C(=O)N[C@H](C(=O)N[C@@H](CC(N)=O)C(=O)NC(C)(C)C(=O)N[C@@H](CCC(N)=O)C(=O)N[C@H](C(=O)N[C@@H](CC(C)C)C(=O)N[C@@H](C)C(=O)N[C@@H](CCC(N)=O)C(=O)N[C@H](C(N)=O)C(C)C)[C@@H](C)CC)[C@@H](C)O)[C@@H](C)CC)[C@@H](C)CC)C(C)C)C(C)C` [compound 179] (H-[NMeI]VLSLD[dV]PIKLK([AEEA-AEEA-γGlu-γGlu-C14 diacid])KILLEQEKQKKQREQAETN[Aib]QILAQV-NH2) were 15.5 nM, above 250 nM and −4 % I.
